Some test systems named below: RXF 393; OVCAR-4; NCI-H23; SW-620; A498; K562; HOP-92; UACC-257; HL-60; EKVX; A549; KM12; HOP-62; LOX IMVI; Hs-578T; DU-145; T47D; MDA-MB-435; MCF7.
Common to all, as to test: DTP human tumour cell line panel, 48 h

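Growth conditions: 96-well plates. Treatment: test compound, 48 hours, 5 concentrations. Analysis: linear interpolation between bracketing concentrations; unreached endpoints set to highest concentration. The concentration for 50% growth inhibition is given as GI50.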 The source made the active and inactive calls. Cut-off read from the data, not from the text of the source: active = GI50 up to about 1.1 µM and inactive = higher.

Broadly, the GI50 is the concentration that inhibits growth by half. As to `N/C(=N\O)N/N=C/c1ccc(C(F)(F)F)cc1`, the GI50 in the assay on RXF 393 was 29.9 µM (inactive); in the assay on OVCAR-4, 4.86 µM (inactive); in the assay with NCI-H23, 15 µM (inactive); with SW-620, 31 µM (inactive); in the assay on A498, 17.1 µM (inactive); in the assay on K562, 16.9 µM (inactive). Further, the GI50 in the assay on HOP-92 was 18.4 µM (inactive); in the assay on UACC-257 it was 32.2 µM (inactive); in the assay with HL-60 it was 10.9 µM (inactive); with EKVX, 4.23 µM (inactive); in the assay on A549 it was 5.15 µM (inactive); in the assay with KM12, 13.1 µM (inactive). For the same molecule, the GI50 in the assay on HOP-62 is 15.5 µM (inactive).

With `NC1=C(Br)C(=O)c2ncccc2C1=O`, the GI50 with RXF 393 was 0.258 µM (active); in the assay with OVCAR-4, 1.37 µM (inactive); with NCI-H23 it was 0.156 µM (active); in the assay on SW-620, 0.466 µM (active); with A498, 3.72 µM (inactive); with K562, 0.277 µM (active). The GI50 in the assay on HOP-92 was 1.45 µM (inactive); in the assay with LOX IMVI, 0.137 µM (active); in the assay with UACC-257, 0.483 µM (active); with HL-60 it was 0.505 µM (active); with EKVX, 1.61 µM (inactive); with A549 it was 0.855 µM (active). Also, the figures for the GI50 in the assay on KM12 and in the assay with HOP-62 were 1.12 µM (active) and 0.632 µM (active), respectively.

With `CCOC(=O)C(C#N)C1=CC(=O)C(=O)c2ccc(O)cc21` (stereo not drawn), the GI50 was > 100 µM (inactive) with RXF 393; 17.2 µM (inactive) with Hs-578T; 58.9 µM (inactive) in the assay with OVCAR-4; > 100 µM (inactive) in the assay with DU-145; 79.4 µM (inactive) in the assay on T47D; 19.3 µM (inactive) in the assay with NCI-H23. In addition, the GI50 in the assay on SW-620 is 77.4 µM (inactive); in the assay on A498 it was > 100 µM (inactive); with K562, > 100 µM (inactive); in the assay with MDA-MB-435, 21.1 µM (inactive); in the assay on LOX IMVI, 36.7 µM (inactive); in the assay with UACC-257 it was 31.9 µM (inactive). Moreover, the GI50 in the assay on HL-60, in the assay with EKVX, with MCF7, in the assay on A549, with KM12 and with HOP-62 was > 100 µM (inactive) each time.

Take `COC1OC(CO)C(O)C(O)C1Br` (stereo not drawn): the GI50 in the assay on RXF 393, in the assay with OVCAR-4, in the assay on NCI-H23, in the assay with SW-620, in the assay with A498 and in the assay on K562 was > 100 µM (inactive) throughout. The GI50 with HOP-92, in the assay on LOX IMVI, with UACC-257, with HL-60, in the assay on A549 and in the assay on KM12 was > 100 µM (inactive) throughout. For the same molecule, the GI50 in the assay on HOP-62 is > 100 µM (inactive).

For the molecule `O=C1COc2cc(NC(=S)Nc3ccccc3)ccc2N1`, the GI50 with RXF 393, in the assay with OVCAR-4, in the assay with NCI-H23, in the assay with SW-620, in the assay on K562 and with HOP-92 was > 100 µM (inactive) each time. The GI50 in the assay with LOX IMVI, in the assay with UACC-257, in the assay with HL-60, in the assay on EKVX, with A549 and in the assay with KM12 was > 100 µM (inactive) throughout. Moreover, the GI50 in the assay on HOP-62 was > 100 µM (inactive).

Regarding `NC(=O)CCC(NC(=O)Cc1ccccc1)C(=O)O.NC(CCC(=O)NC(=O)Cc1ccccc1)C(=O)O` (stereo not drawn), the GI50 in the assay on RXF 393, in the assay with OVCAR-4, with NCI-H23, with SW-620, in the assay with A498 and in the assay with K562 was > 8130 µM (inactive) in each case. Also, the GI50 in the assay on HOP-92, in the assay with HL-60, with EKVX, with A549, in the assay on KM12 and in the assay on HOP-62 was > 8130 µM (inactive) in each case.

In the case of `COc1ccc2c3c(c(C(=O)c4ccccc4)oc13)CCC2`, the GI50 was 17.5 µM (inactive) in the assay on RXF 393; > 100 µM (inactive) with OVCAR-4; 20.8 µM (inactive) in the assay with NCI-H23; > 100 µM (inactive) with SW-620; > 100 µM (inactive) in the assay with A498; > 100 µM (inactive) with K562. Moreover, the GI50 in the assay with HOP-92 was < 0.01 µM (active); in the assay with LOX IMVI it was > 100 µM (inactive); in the assay on UACC-257, > 100 µM (inactive); in the assay on HL-60 it was > 100 µM (inactive); in the assay with EKVX it was > 100 µM (inactive); in the assay on A549, > 100 µM (inactive). Also, the GI50 in the assay with HOP-62 was > 100 µM (inactive).

Turning to `C/C(CC(=O)N(C(C)C)C(C)C)=N\NC(=O)c1ccncc1`, the GI50 in the assay with RXF 393, with OVCAR-4, in the assay on NCI-H23, in the assay with SW-620, in the assay on A498 and in the assay with K562 was > 100 µM (inactive) in each case. The GI50 with HOP-92, in the assay with LOX IMVI, with UACC-257, in the assay on HL-60, in the assay with EKVX and in the assay with A549 was > 100 µM (inactive) in each case.

As to `COc1ccc(/C(Cl)=C(\C=N/O)c2ccc(OC)c(OC)c2)cc1OC`, the GI50 in the assay with RXF 393, in the assay on OVCAR-4, in the assay with NCI-H23, in the assay on SW-620, with A498 and with K562 was > 100 µM (inactive) throughout. For the same molecule, the GI50 is 63.4 µM (inactive) in the assay on HOP-92; > 100 µM (inactive) in the assay on LOX IMVI; > 100 µM (inactive) in the assay on UACC-257; > 100 µM (inactive) with HL-60; > 100 µM (inactive) with EKVX; > 100 µM (inactive) with A549. In addition, the GI50 with KM12 is > 100 µM (inactive); in the assay on HOP-62 it was 49.8 µM (inactive).

In the case of `CN(C)/N=C1/CCC(C(F)(F)F)(C(F)(F)F)O1`, the GI50 was 32.6 µM (inactive) in the assay with RXF 393; 39.2 µM (inactive) in the assay on Hs-578T; 47.6 µM (inactive) in the assay with OVCAR-4; 47 µM (inactive) with DU-145; 33.2 µM (inactive) in the assay with T47D; 37.4 µM (inactive) with NCI-H23. For the same molecule, the GI50 with SW-620 is 40.6 µM (inactive); in the assay with A498, 21.4 µM (inactive); with K562 it was 40.7 µM (inactive); in the assay with MDA-MB-435, 27.5 µM (inactive); in the assay on HOP-92, 32.7 µM (inactive); in the assay with LOX IMVI, 33.6 µM (inactive). For the same molecule, the GI50 in the assay with HL-60 is 28.3 µM (inactive); in the assay with EKVX, 36.9 µM (inactive); in the assay with A549 it was 37.5 µM (inactive); with KM12, 20.7 µM (inactive); in the assay on HOP-62, 31.4 µM (inactive).

`Cc1cc2nn(C3CCCO3)nc2cc1C` (stereo not drawn): the GI50 in the assay with RXF 393, in the assay with Hs-578T, in the assay on OVCAR-4, with DU-145, in the assay on T47D and with NCI-H23 was > 100 µM (inactive) each time. Also, the GI50 with A498, with K562, in the assay on MDA-MB-435, with UACC-257, in the assay on EKVX and with MCF7 was > 100 µM (inactive) throughout. Further, the GI50 with A549 and in the assay with HOP-62 was > 100 µM (inactive) each time.

Regarding `C[C@@]1(O)C2CC3CC1(c1ccccc1)CC(/C3=N/O)/C2=N\O` (stereo partly drawn), the GI50 in the assay with RXF 393, in the assay on OVCAR-4, in the assay on DU-145, in the assay on T47D, with NCI-H23 and with SW-620 was > 100 µM (inactive) each time. The GI50 in the assay on A498, in the assay with K562, in the assay on MDA-MB-435, with HOP-92, with LOX IMVI and with UACC-257 was > 100 µM (inactive) throughout. In addition, the GI50 in the assay on HL-60, with EKVX, in the assay with A549, in the assay with KM12 and in the assay on HOP-62 was > 100 µM (inactive) throughout.

Take `Cc1ccc(C)c(NC(=O)C(=O)C(C2C(C)CC(=O)C2CC(=O)O)[N+](=O)[O-])c1` (stereo not drawn): the GI50 in the assay on RXF 393, with OVCAR-4, in the assay with NCI-H23, with SW-620, with A498 and in the assay on K562 was > 100 µM (inactive) throughout. In addition, the GI50 in the assay on HOP-92, with LOX IMVI, with UACC-257, with HL-60, in the assay with EKVX and in the assay on A549 was > 100 µM (inactive) each time. Moreover, the GI50 in the assay on KM12 and with HOP-62 was > 100 µM (inactive) in each case.

Take `O=C(/C=C/c1c(O)ccc2ccccc12)c1ccc([N+](=O)[O-])cc1`: the GI50 in the assay with RXF 393 is 23.1 µM (inactive); in the assay on OVCAR-4 it was 18.5 µM (inactive); in the assay on NCI-H23, 23.1 µM (inactive); in the assay with SW-620, 25.2 µM (inactive); in the assay with A498, > 100 µM (inactive); in the assay with K562, > 49.4 µM (inactive). For the same molecule, the GI50 in the assay on HOP-92 is 16.1 µM (inactive); in the assay on LOX IMVI, 16.7 µM (inactive); with UACC-257, 25.2 µM (inactive); in the assay on HL-60 it was 9.77 µM (inactive); in the assay with EKVX it was 41.9 µM (inactive); in the assay on A549, > 95.9 µM (inactive). Moreover, the GI50 in the assay on KM12 is 67.1 µM (inactive); in the assay with HOP-62 it was > 100 µM (inactive).

The values above are taken from ChEMBL document CHEMBL1201862, “PubChem BioAssay data set” (2004).
